# Data published in patent US8586547B2, “CDC45L peptides and vaccines including the same” (Oncotherapy Science, Inc., priority 2009, dated 2013).
# Where two headings read alike, the source gives them in different places. Where a SMILES comes first, the peptide text is derived from it.
# How the values were obtained:
# [1] = Immunization of BALB/c mice with peptides emulsified in incomplete Freund adjuvant; assay type: in vivo; settings: long-term observation period, unpublished data
# [2] = test system: C1R-A2402 cells pulsed with CDC45L derived peptides
# Protocol: The DCs were pulsed with 20 micro-g/mL of the candidate peptides in the presence of 4 micro-g/mL beta 2-microglobulin (Sigma-Aldrich) for 2 h at 37 degrees C. in AIM-V (Invitrogen) supplemented with 2% heat-inactivated autologous plasma. The cells were then irradiated (40 Gy) and incubated with the isolated CD8^+ T cells as described previously (Imai K et al., Clin Cancer Res 2008; 14:6487-95, Harao M et al., Int J Cancer 2008; 123:2616-25). Two additional stimulations with peptide-loaded autologous PHA-blasts were performed on days 7 and 14. The PHA-blasts were generated as described previously (Inoue M et al., Immunol Lett 2009; 126:67-72), and these PHA-blasts (5×10^5) were pulsed with 20 micro-g/mL peptides for 3 h, irradiated (100 Gy) and cultured with the 2×10^6 CD8^+ T cells in the presence of 10 ng/mL human recombinant IL-7 (Wako, Osaka, Japan). After 2 days, the cultures were supplemented with 20 IU/mL human recombinant IL-2 (PeproTec, Inc.).
# Six days after the last stimulation, the antigen-specific responses of the induced CTLs were investigated. Two additional weekly stimulations with peptide-loaded autologous PHA-blasts were carried out on day 7 and 14. Autologous CD 14^− CD8^− cells enriched with CD4^+ T cells were cultured with PHA (2 micro-g/mL) and human recombinant IL-2 (100 IU/mL) for 2 days, and cells were washed with PBS and cultured with human recombinant IL-2 (100 IU/mL) for additional three days. These PHA-blasts (5×10^5) were pulsed with 50 micro-g/mL peptides for 2 hours at 37 degrees C. in AIM-V (Invitrogen) supplemented with 2% heat-inactivated autologous plasma. The cells were then irradiated (100 Gy) and incubated with the 2×10^6 CD8^+ T cells. These cultures were set up in 24-well plates using the medium supplemented with 5 ng/mL human recombinant IL-7, IL-2, and IL-15. Six days after the last stimulation, the antigen-specific responses of the induced CTLs were investigated by an IFN-gamma ELISPOT assay, CD107a mobilization assay and ^51Cr release assay as described previously (Komori H et al. Clin Cancer Res 2006; 12: 2689-97) and below.
# The frequency of cells producing interferon (IFN)-gamma per 1×10^5 CTLs upon stimulation with Lu99 cells (1×10^4/well) or peptide-pulsed C1R-A2402 and T2 cells (1×10^4/well) was analyzed by an ELISPOT assay (Human IFN-gamma ELISPOT kit, BD Biosciences) as previously described (Komori H et al., Clin Cancer Res 2006; 12:2689-97, Bourgault V I et al., Cancer Res 2004; 64:8761-6). The CTLs were co-cultured with cancer cells or peptide-pulsed C1R-A2402 and T2 cells as target cells (5×10^3/well) at the indicated effector-to-target ratio, and a standard ^51Cr-release assay was performed as described previously (Yokomine K et al., Int J Cancer 2009; 126:2153-63, Monji M et al., Clin Cancer Res 2004; 10:6047-57). The blocking of HLA-class I by anti-human HLA class I mAb, W6/32 (IgG2a, Santa Cruz Biotechnology), or HLA-class II by anti-human HLA-DR mAb (IgG2a, BD Biosciences), was performed as described previously (Komori H et al., Clin Cancer Res 2006; 12:2689-97, Makita M et al., Clin Cancer Res 2002; 8:2626-31).
# [3] = test system: Lu99 cells (CDC45L+, HLA-A24+); assay: 51Cr-release assay against Lu99 lung cancer cells; assay type: cell-based, human
# Protocol: (§1) To knock down the expression of CDC45L in lung cancer cells, CDC45L small interfering (si) RNAs (human Cdc45 siRNA, sc-35044: a pool of three target-specific 20-25 nt siRNAs; Santa Cruz) were added at a final concentration of 150 nM to 40-60% confluent cells. Lipofectamine™ 2000 (Invitrogen) was used to transfect the siRNAs into cells, according to the manufacturer's instructions. GFP siRNAs were used as an irrelevant control. The treated cells were washed once with PBS, and adherent cells were collected at 72 h after transfection and used as target cells for the ^51Cr-release assay. To investigate the ability of siRNA to suppress CDC45L expression, western blot analysis was performed as described previously (Nakatsura T et al., Biochem Biophys Res Commun 2003; 306:16-25). Cancer cells were washed once with PBS at 48 h after transfection, and adherent cells were collected and lysed to analyze the expression levels of CDC45L for comparison with those of negative control cells. Beta-actin was used as the internal control. Rabbit polyclonal antibody reactive to CDC45L (sc-20685, Santa Cruz Biotechnology) was used as the primary antibody.
# [4] = test system: A549 cells (CDC45L+, HLA-A24-); assay type: cell-based, human
# Protocol: (§2) The CTLs were co-cultured with cancer cells or peptide-pulsed C1R-A2402 and T2 cells as target cells (5×10^3/well) at the indicated effector-to-target ratio, and a standard ^51Cr-release assay was performed as described previously (Yokomine K et al., Int J Cancer 2009; 126:2153-63, Monji M et al., Clin Cancer Res 2004; 10:6047-57). The blocking of HLA-class I by anti-human HLA class I mAb, W6/32 (IgG2a, Santa Cruz Biotechnology), or HLA-class II by anti-human HLA-DR mAb (IgG2a, BD Biosciences), was performed as described previously (Komori H et al., Clin Cancer Res 2006; 12:2689-97, Makita M et al., Clin Cancer Res 2002; 8:2626-31).
# [5] = test system: EBC-1 cells (CDC45L+, HLA-A24+); assay type: cell-based, human
# Protocol: as §1
# [6] = test system: T2 cells pulsed with the peptide; settings: CTL lines from HLA-A2 positive healthy donor; not against HIV-A2 peptide-loaded T2 cells
# Protocol: PBMCs were isolated from HLA-A24 or HLA-A2 positive Japanese healthy donors and lung cancer patients, and the peripheral monocyte-derived dendritic cells (DCs) were generated as described previously (Harao M et al., Int J Cancer 2008; 123:2616-25, Naito K et al., Int J Oncol 2006; 28:1481-9). The DCs were pulsed with 20 micro-g/mL of the candidate peptides in the presence of 4 micro-g/mL beta 2-microglobulin (Sigma-Aldrich) for 2 h at 37 degrees C. in AIM-V (Invitrogen) supplemented with 2% heat-inactivated autologous plasma. The cells were then irradiated (40 Gy) and incubated with the isolated CD8^+ T cells as described previously (Imai K et al., Clin Cancer Res 2008; 14:6487-95, Harao M et al., Int J Cancer 2008; 123:2616-25). Two additional stimulations with peptide-loaded autologous PHA-blasts were performed on days 7 and 14. […]
# The frequency of cells producing interferon (IFN)-gamma per 1×10^5 CTLs upon stimulation with Lu99 cells (1×10^4/well) or peptide-pulsed C1R-A2402 and T2 cells (1×10^4/well) was analyzed by an ELISPOT assay (Human IFN-gamma ELISPOT kit, BD Biosciences) as previously described (Komori H et al., Clin Cancer Res 2006; 12:2689-97, Bourgault V I et al., Cancer Res 2004; 64:8761-6). […]
# [7] = test system: Panc1 cells (CDC45L+, HLA-A2+, HLA-A24-); assay: 51Cr-release assay against Panc1 cells; settings: not inhibited by control anti-HLA-class II mAb
# Protocol: as §2
"pathological changes, such as lymphocyte infiltration or tissue destruction [1]","signs of autoimmune diseases, such as weight loss, diarrhea and skin abnormalities [1]",Structure (SMILES),cytotoxic activity of CTL lines against peptide-pulsed C1R-A2402 cells [2],cytotoxicity of peptide-induced CTLs against EBC-1 cells [5],also measured
did not exhibit pathological changes,no signs of autoimmune diseases,CC[C@H](C)[C@H](NC(=O)[C@H](CCC(N)=O)NC(=O)[C@@H](NC(=O)[C@H](CC(=O)O)NC(=O)[C@H](CC(N)=O)NC(=O)[C@H](Cc1ccc(O)cc1)NC(=O)[C@@H](N)C(C)C)[C@@H](C)O)C(=O)N[C@@H](CCCCN)C(=O)N[C@@H](CC(C)C)C(=O)O [CDC45L-A24-9-109-2] (H-VYNDTQIKL-OH),exhibited cytotoxic activity,,cytotoxicity of peptide-induced CTLs against Lu99 cells [3]: exhibited cytotoxicity; cytotoxicity of peptide-induced CTLs against Lu99 cells transfected with CDC45L specific siRNAs [3]: not against; cytotoxicity of peptide-induced CTLs against A549 cells [4]: not against
did not exhibit pathological changes,no signs of autoimmune diseases,CC(C)C[C@H](NC(=O)[C@H](CCCCN)NC(=O)[C@H](Cc1ccccc1)NC(=O)[C@H](CCCNC(=N)N)NC(=O)[C@H](C)NC(=O)[C@H](C)NC(=O)[C@@H](NC(=O)[C@H](Cc1ccc(O)cc1)NC(=O)[C@@H](N)CO)[C@@H](C)O)C(=O)O [CDC45L-A24-9-294-3] (H-SYTAARFKL-OH),exhibited cytotoxic activity,exhibited cytotoxicity,
,,CC(C)C[C@H](NC(=O)[C@H](Cc1ccccc1)NC(=O)[C@@H](N)CCCCN)C(=O)N[C@@H](C)C(=O)N[C@@H](CO)C(=O)N[C@@H](CC(=O)O)C(=O)N[C@H](C(=O)N[C@H](C(=O)N[C@@H](Cc1ccccc1)C(=O)O)C(C)C)C(C)C [CDC45L-A24-9-370-7] (H-KFLASDVVF-OH),exhibited cytotoxic activity,exhibited cytotoxicity,
,,CC[C@H](C)[C@H](NC(=O)[C@H](CC(C)C)NC(=O)[C@H](C)NC(=O)[C@H](CC(=O)O)NC(=O)[C@H](CC(C)C)NC(=O)[C@H](Cc1ccccc1)NC(=O)[C@@H](N)CCCCN)C(=O)N[C@@H](CO)C(=O)N[C@@H](CC(C)C)C(=O)O [CDC45L-A24-9-556-4] (H-KFLDALISL-OH),exhibited cytotoxic activity,,"cytotoxicity of CTL lines against peptide-pulsed T2 cells [6]: exhibited cytotoxicity; cytotoxicity of CTL lines against C1R-A2402 cells loaded with the peptide [2]: not against; cytotoxicity against Panc1 cells in presence of blocking mAb against HLA-class I (W6/32) [7]: significantly inhibited; cytotoxicity of peptide-induced CTLs against Lu99 cells transfected with CDC45L specific siRNAs ([3]; CDC45L-, HLA-A24+ target cells): not against; cytotoxicity of peptide-induced CTLs against Lu99 cells ([3]; Lu99 cells and Lu99 cells transfected with control GFP siRNAs): exhibited cytotoxicity"
,,CC[C@H](C)[C@H](NC(=O)[C@H](CC(C)C)NC(=O)[C@H](C)NC(=O)[C@H](CC(=O)O)NC(=O)[C@H](CC(C)C)NC(=O)[C@H](Cc1ccccc1)NC(=O)[C@@H](N)CCCCN)C(=O)N[C@@H](CO)C(=O)N[C@@H](CC(C)C)C(=O)N[C@@H](CC(C)C)C(=O)O [CDC45L-A24-10-556-12] (H-KFLDALISLL-OH),exhibited cytotoxic activity,,
